Test results taken from patent publication US20170022171A1, “2,5-DISUBSTITUTED CYCLOPENTANECARBOXYLIC ACIDS AND THEIR USE” (Bayer Pharma Aktiengesellschaft, priority 2014, published 2017).

target: T1, human macrophage elastase (HME/hMMP-12) (Homo sapiens, UniProt P39900); assay: In vitro HME inhibition test (standard or high-sensitivity); format: biochemical; settings: in some cases mean values
T1 construct: 0.5 nM HME; purchased R&D Systems 917-MP
Summary of the method: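 Fluorogenic assay: 0.5 nM autoactivated HME with 5 µM Mca-Pro-Leu-Gly-Leu-Glu-Glu-Ala-Dap(Dnp)-NH2 in HEPES pH 7.4 buffer (NaCl, CaCl2, ZnCl2, EDTA, Brij), 2 h at 37 °C; ex 323/em 393 nm. IC50 from fluorescence versus concentration. High-sensitivity format: ~0.05 nM enzyme, ~16 h incubation.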

T1 sequence (P39900 106-470): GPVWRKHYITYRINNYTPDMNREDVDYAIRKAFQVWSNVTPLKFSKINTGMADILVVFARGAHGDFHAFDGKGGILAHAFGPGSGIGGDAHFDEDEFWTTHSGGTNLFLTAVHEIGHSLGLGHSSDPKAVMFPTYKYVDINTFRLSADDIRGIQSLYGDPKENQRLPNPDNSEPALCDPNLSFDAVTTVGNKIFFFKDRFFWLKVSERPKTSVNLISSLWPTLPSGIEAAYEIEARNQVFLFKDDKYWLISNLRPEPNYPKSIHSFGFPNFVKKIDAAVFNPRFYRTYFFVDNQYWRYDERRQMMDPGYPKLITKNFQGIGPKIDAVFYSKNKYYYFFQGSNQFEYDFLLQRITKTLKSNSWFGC

Row | IC50 | Compound
1 | 0.015 nM | O=C(O)[C@H]1[C@H](Cn2nnc3ccc(C(F)(F)F)cc3c2=O)CC[C@@H]1C(=O)c1ccc(OCc2ccc(Cl)cc2)cc1 (racemic) [Example 24, (+/−)-(1RS,2RS,5SR)-2-{4-[(4-Chlorobenzyl)oxy]benzoyl}-5-{[4-oxo-6-(trifluoromethyl)-1,2,3-benzotriazin-3(4H)-yl]methyl}cyclopentanecarboxylic acid]
2 | 0.031 nM | CCCOc1ccc(C(=O)[C@@H]2CC[C@H](Cn3nnc4ccc(C(F)(F)F)cc4c3=O)[C@H]2C(=O)O)cc1 (single isomer, unassigned) [Example 70, (+)-(1RS,2SR,5RS)-2-{[4-Oxo-6-(trifluoromethyl)-1,2,3-benzotriazin-3(4H)-yl]methyl}-5-(4-propoxybenzoyl)cyclopentanecarboxylic acid]
3 | 0.027 nM | O=C(O)[C@H]1[C@H](Cn2nnc3ccc(C(F)(F)F)cc3c2=O)CC[C@@H]1C(=O)c1ccc(OCCC2CCCC2)cc1 (racemic) [Example 53, (+/−)-(1RS,2RS,5SR)-2-[4-(2-Cyclopentylethoxy)benzoyl]-5-{[4-oxo-6-(trifluoromethyl)-1,2,3-benzotriazin-3(4H)-yl]methyl}cyclopentanecarboxylic acid]
4 | 0.039 nM | O=C(O)[C@H]1[C@H](Cn2nnc3ccc(C(F)(F)F)cc3c2=O)CC[C@@H]1C(=O)c1ccc(OCC2CCCC2)cc1 (racemic) [Example 43, (+/−)-(1RS,2RS,5SR)-2-[4-(Cyclopentylmethoxy)benzoyl]-5-{[4-oxo-6-(trifluoromethyl)-1,2,3-benzotriazin-3(4H)-yl]methyl}cyclopentanecarboxylic acid]
5 | 0.025 nM | Cc1ccc2nnn(C[C@H]3CC[C@@H](C(=O)c4ccc(OCc5ccc(F)cc5)cc4)[C@@H]3C(=O)O)c(=O)c2c1 (single isomer, unassigned) [Example 95, (+)-(1RS,2RS,5SR)-2-{4-[(4-Fluorobenzyl)oxy]benzoyl}-5-[(6-methyl-4-oxo-1,2,3-benzotriazin-3(4H)-yl)methyl]cyclopentanecarboxylic acid]
6 | 0.048 nM | Cc1ccc2nnn(C[C@@H]3CC[C@H](C(=O)c4ccc(OCC5CCCC5)cc4)[C@H]3C(=O)O)c(=O)c2c1 (racemic) [Example 119, (+/−)-(1RS,2RS,5SR)-2-[4-(Cyclopentylmethoxy)benzoyl]-5-[(6-methyl-4-oxo-1,2,3-benzotriazin-3(4H)-yl)methyl]cyclopentanecarboxylic acid]
7 | 0.045 nM | CCCCCSc1ccc(C(=O)[C@@H]2CC[C@H](Cn3nnc4ccc(C(F)(F)F)cc4c3=O)[C@H]2C(=O)O)cc1 (single isomer, unassigned) [Example 89, (+)-(1RS,2SR,5RS)-2-{[4-Oxo-6-(trifluoromethyl)-1,2,3-benzotriazin-3(4H)-yl]methyl}-5-[4-(pentylsulphanyl)benzoyl]cyclopentanecarboxylic acid]
8 | 4.6 nM | O=C(O)[C@@H]1[C@@H](Cn2nnc3ccc(C(F)(F)F)cc3c2=O)CC[C@H]1C(=O)c1ccc(OCc2cccc(C(F)(F)F)c2)cc1 (single isomer, unassigned) [Example 20, (−)-(1RS,2SR,5RS)-2-{[4-Oxo-6-(trifluoromethyl)-1,2,3-benzotriazin-3(4H)-yl]methyl}-5-(4-{[3-(trifluoromethyl)benzyl]oxy}benzoyl)cyclopentanecarboxylic acid]
9 | 0.17 nM | O=C(O)[C@H]1[C@H](Cn2nnc3ccc(C(F)(F)F)cc3c2=O)CC[C@@H]1C(=O)c1ccc(SCc2ccccc2)cc1 (racemic) [Example 73, (+/−)-(1RS,2RS,5SR)-2-[4-(Benzylsulphanyl)benzoyl]-5-{[4-oxo-6-(trifluoromethyl)-1,2,3-benzotriazin-3(4H)-yl]methyl}cyclopentanecarboxylic acid]
10 | 0.032 nM | O=C(O)[C@H]1[C@H](Cn2nnc3ccc(C(F)(F)F)cc3c2=O)CC[C@@H]1C(=O)c1ccc(OCc2ccc(Cl)c(Cl)c2)cc1 (racemic) [Example 27, (+/−)-(1RS,2RS,5SR)-2-{4-[(3,4-Dichlorobenzyl)oxy]benzoyl}-5-{[4-oxo-6-(trifluoromethyl)-1,2,3-benzotriazin-3(4H)-yl]methyl}cyclopentanecarboxylic acid]
11 | 0.045 nM | O=C(O)[C@H]1[C@H](Cn2nnc3ccc(C(F)(F)F)cc3c2=O)CC[C@@H]1C(=O)c1ccc(OCc2cccc(Cl)c2)cc1 (racemic) [Example 21, (+/−)-(1RS,2RS,5SR)-2-{4-[(3-Chlorobenzyl)oxy]benzoyl}-5-{[4-oxo-6-(trifluoromethyl)-1,2,3-benzotriazin-3(4H)-yl]methyl}cyclopentanecarboxylic acid]
12 | 10 nM | O=C(O)[C@@H]1[C@@H](Cn2nnc3ccc(C(F)(F)F)cc3c2=O)CC[C@H]1C(=O)c1ccc(OCc2ccc(F)cc2)cc1 (single isomer, unassigned) [Example 14, (−)-(1RS,2RS,5SR)-2-{4-[(4-Fluorobenzyl)oxy]benzoyl}-5-{[4-oxo-6-(trifluoromethyl)-1,2,3-benzotriazin-3(4H)-yl]methyl}cyclopentanecarboxylic acid]
13 | 145 nM | CCCCCOc1ccc(C(=O)[C@@H]2CC[C@H](Cn3nnc4ccccc4c3=O)[C@H]2C(=O)O)cc1 (single isomer, unassigned) [Example 9, (−)-(1RS,2SR,5RS)-2-[(4-Oxo-1,2,3-benzotriazin-3(4H)-yl)methyl]-5-[4-(pentyloxy)benzoyl]cyclopentanecarboxylic acid]
14 | 0.036 nM | O=C(O)[C@H]1[C@H](Cn2nnc3ccc(C(F)(F)F)cc3c2=O)CC[C@@H]1C(=O)c1ccc(OCCC2CCCCC2)cc1 (racemic) [Example 50, (+/−)-(1RS,2RS,5SR)-2-[4-(2-Cyclohexylethoxy)benzoyl]-5-{[4-oxo-6-(trifluoromethyl)-1,2,3-benzotriazin-3(4H)-yl]methyl}cyclopentanecarboxylic acid]
15 | 39 nM | O=C(O)[C@@H]1[C@@H](Cn2nnc3ccc(C(F)(F)F)cc3c2=O)CC[C@H]1C(=O)c1ccc(OCC2CCCCC2)cc1 (single isomer, unassigned) [Example 42, (−)-(1RS,2RS,5SR)-2-[4-(Cyclohexylmethoxy)benzoyl]-5-{[4-oxo-6-(trifluoromethyl)-1,2,3-benzotriazin-3(4H)-yl]methyl}cyclopentanecarboxylic acid]
16 | 350 nM | O=C(O)[C@@H]1[C@@H](Cn2nnc3ccc(C(F)(F)F)cc3c2=O)CC[C@H]1C(=O)c1ccc(OCCc2ccccc2)cc1 (single isomer, unassigned) [Example 38, (−)-(1RS,2SR,5RS)-2-{[4-Oxo-6-(trifluoromethyl)-1,2,3-benzotriazin-3(4H)-yl]methyl}-5-[4-(2-phenylethoxy)benzoyl]cyclopentanecarboxylic acid]
17 | 0.12 nM | O=C(O)[C@H]1[C@H](Cn2nnc3ccc(C(F)(F)F)cc3c2=O)CC[C@@H]1C(=O)c1ccc(SCCc2ccccc2)cc1 (racemic) [Example 82, (+/−)-(1RS,2SR,5RS)-2-{[4-Oxo-6-(trifluoromethyl)-1,2,3-benzotriazin-3(4H)-yl]methyl}-5-{4-[(2-phenylethyl)sulphanyl]benzoyl}cyclopentanecarboxylic acid]
18 | 1 nM | O=C(O)[C@@H]1[C@@H](Cn2nnc3ccc(C(F)(F)F)cc3c2=O)CC[C@H]1C(=O)c1ccc(OCc2ccc(Cl)cc2)cc1 (single isomer, unassigned) [Example 26, (−)-(1RS,2RS,5SR)-2-{4-[(4-Chlorobenzyl)oxy]benzoyl}-5-{[4-oxo-6-(trifluoromethyl)-1,2,3-benzotriazin-3(4H)-yl]methyl}cyclopentanecarboxylic acid]

Row | Compound | IC50
19 | CC(C)CCOc1ccc(C(=O)[C@@H]2CC[C@H](Cn3nnc4ccc(C(F)(F)F)cc4c3=O)[C@H]2C(=O)O)cc1 (single isomer, unassigned) [Example 61, (+)-(1RS,2RS,5SR)-2-[4-(3-Methylbutoxy)benzoyl]-5-{[4-oxo-6-(trifluoromethyl)-1,2,3-benzotriazin-3(4H)-yl]methyl}cyclopentanecarboxylic acid] | 0.032 nM

tested on: rat hepatocytes; assay: Hepatocyte assay for determination of metabolic stability; format: in vitro ADME; settings: after incubation with rat hepatocytes
Procedure: The metabolic stability of test compounds towards hepatocytes is determined by incubating the compounds at low concentrations (preferably below or around 1 μM) and at low cell counts (preferably at 1*10^6 cells/ml) in order to ensure maximum linearity of kinetic conditions in the experiment. Seven samples from the incubation solution are taken for the LC-MS analysis within a fixed time pattern, in order to determine the half-life (i.e. the degradation) of the particular compound. This half life is used to calculate various “Clearance” parameters (CL) and “Fmax” values (see below).
The CL and Fmax values are a measure of the phase 1 and phase 2 metabolism of the compounds in the hepatocytes. In order to minimize the influence of the organic solvent on the enzymes in the incubation batches, the concentration thereof is generally limited to 1% (acetonitrile) or 0.1% (DMSO).
For all species and breeds, a hepatocyte cell count in the liver of 1.1*10^8 cells/g of liver is expected.
The parameters calculated and the meanings thereof are: • Fmax well-stirred [%] maximum possible bioavailability after oral administration • Calculation: (1−CLblood well-stirred/QH)*100 • CLblood well-stirred [L/(h*kg)] calculated blood clearance (well-stirred model) • Calculation: (QH*CL′intrinsic)/(QH+CL′intrinsic) • CL′intrinsic[ml/(min*kg)] maximum ability of the liver (of the hepatocytes) to metabolize a compound (assuming that the liver blood flow is not rate-limiting) • Calculation: CL′intrinsic, apparent*species-specific hepatocyte count [1.1*10^8/g liver]*species-specific liver weight [g/kg] • CL′intrinsic, apparent[ml/(min*mg)] normalizes the elimination constant by dividing it by the hepatocyte cell count x used (x*10^6/ml) • Calculation: ke1[1/min]/(cell count [x*10^6]/incubation volume [ml]) • (QH=species-specific liver blood flow).

Row | CLblood (calculated blood clearance, well-stirred) | Fmax (maximum possible bioavailability after oral administration, well-stirred) | Compound
20 | 6.67 mL/min/kg | 90.4% | Cc1ccc2nnn(C[C@H]3CC[C@@H](C(=O)c4ccc(OCc5cccc(OC(F)(F)F)c5)cc4)[C@@H]3C(=O)O)c(=O)c2c1 (racemic) [Example 110, (+)-(1RS,2SR,5RS)-2-[(6-Methyl-4-oxo-1,2,3-benzotriazin-3(4H)-yl)methyl]-5-(4-{[3-(trifluoromethoxy)benzyl]oxy}benzoyl)cyclopentanecarboxylic acid]
